Here are results for 66 compounds from a melting point compilation (Tetko et al.; mined from patent text by program, amines drawn as free bases though some values may be those of a salt).

Some results are limits rather than exact numbers.

In turn, `C[C@@H](S[C@H]1CO[C@H](/C=C/c2cccnc2)OC1)[C@](O)(Cn1cncn1)c1ccc(F)cc1F` returned a melting point of 118 to 125 °C.
Then `CCOC(=O)C1Cc2c([nH]c3ccccc23)CN1C(=S)SCc1cccs1` (stereo unspecified), with 205 to 207 °C; and `CCc1nnc2c(N)nc3ccccc3n12`, with 284 to 288 °C.
For `Cc1cccc(Cl)c1C(=O)N[C@@H](Cc1ccc(NC(=O)c2c(Cl)cccc2Cl)cc1)C(=O)O` the value was 212 to 215 °C; for `CCOC(=O)C(C(=O)OCC)C(N)c1ccc(Cl)cc1C(N)C(C(=O)OCC)C(=O)OCC` (stereo unspecified), 90 to 92 °C.
Then `CC(Oc1cccc(OCc2ccc3ccc(Br)cc3n2)c1)C(=O)O` (stereo unspecified), with 178 °C; and `CC1=NOC(c2c(S(C)(=O)=O)ccc(C(=O)C3=C(O)CCCC3=O)c2C)C1` (stereo unspecified), with 135 to 140 °C.
As for `CC(C)(C)[Si](C)(C)O[C@@H]1[C@H](O)C[C@]2(O[Si](C)(C)C(C)(C)C)C[C@H]1OC2=O`, the melting point lay in the range of 107 to 108 °C.
Then `CC(=O)Nc1cc(Cl)c([N+](=O)[O-])cc1NC(C)=O`, with 232 °C.
`c1cncc(-c2ccc3c(c2)OCO3)c1`: the melting point was in the range of 92 to 92.5 °C.
Compound `Cc1nccn1-c1nc(-c2ccc(Cl)cc2)c(CCC(=O)O)o1` had a melting point of 195 to 197 °C.
Then `CC(=O)Oc1ccc(C=CC(=O)O)cc1Cl`, with 210 to 213 °C.
The compound `CC(=O)Nc1nc2c(Oc3cc(-c4ccc(C(F)(F)F)cc4)ncn3)cccc2s1` registered a melting point of 219 to 220 °C.
Then `N=C(NC(=O)Nc1ccc([N+](=O)[O-])cc1)c1ccccc1`, with 188 to 191 °C; and `C=CCOC(=O)c1ccc(OC(=O)c2ccc(OC)c(C34CC5CC(CC(C5)C3)C4)c2)c(C)c1`, with 138 to 139 °C.
Then `O=C(c1c[nH]c2cc([N+](=O)[O-])ccc12)C(F)(F)F`, with 263 to 265 °C.
For `CC(C)(C)n1cc(-c2ccc(N(C=O)c3ccccc3)cc2)c2cncnc21` the value was 163 to 164 °C; for `N#CCOC(=O)CCCCc1c[nH]c2ccccc12`, 76 °C; for `O=C(Cl)c1ccc(C(=O)c2ccccc2)cc1`, 92 °C.
`COC(=O)Cc1ccccc1NS(C)(=O)=O`: the melting point was 73 to 75 °C.
`COC(=O)c1cnc(C(=O)O)cn1` came in with a melting point of 183 to 185 °C.
Then `COc1ncccc1-c1cncc(OC2SCC(OC(C)=O)C(OC(C)=O)C2OC(C)=O)c1` (stereo unspecified), with 167 °C.
Then `COc1cc(OC)cc(-c2ncoc2-c2ccc(OC)c(N)c2)c1`, with 163 to 165 °C; and `CC(C)n1nc(-c2c(F)nc(N)nc2-c2ccccc2)ccc1=O`, with 231 to 232 °C; and `CCOC(=O)c1cc2cc(C)c(C)cc2[nH]1`, with 164 °C.
Then `CCOC(=O)c1nc(O)sc1C(=O)CBr`, with 105 to 108 °C; and `C[C@H](NC(=O)OC(C)(C)C)C(=O)NC1N=C(c2ccccn2)c2ccccc2N(C)C1=O` (stereo partly specified), with 228 to 229 °C; and `CCOC(=O)CCC(=O)c1ccc(Cl)cc1OCC(O)CNC(C)(C)C` (stereo unspecified), with 70 °C.
As to `Cc1nc2n(c(=O)c1CCO)CCCS2`, the melting point stood at 155 °C.
For `CCCCCC(O)C=Cc1scnc1CCCCCCC(=O)O` (stereo unspecified) the value was 73 to 74 °C; for `O=C(Nc1ccc(C(=O)N2CCc3sc(Cc4c[nH]cn4)nc3-c3ccccc32)cc1)c1ccccc1-c1ccccc1`, 192 to 195 °C; for `Cn1cc(-c2cc3cccnc3[nH]2)c2cc(OCCCO)ccc21`, 192 to 193 °C.
For `CCCCN(CCCC)C(=O)On1c(-c2ccccc2)nc2c3ccc4ccccc4c3ccc21` the value was 120 °C; for `C[C@H](NC1Cc2ccccc2C1)C(=O)O`, 285 °C; for `CC(C)(S)C1COC(=O)N1` (stereo unspecified), 124 to 126 °C.
For `Cc1nc2cnc3ccccc3c2s1` the value was 95.5 to 97.5 °C; for `CCOc1nn(-c2c(Cl)cc(C(F)(F)F)cc2Cl)c(N)c1C(=O)c1cc(C)ccc1C`, 99 to 101 °C; for `CC(=NNC(=O)c1ccc2n1Cc1ccccc1N(C(=O)c1ccc(C3CCCCC3)cc1)C2)N(C)C`, 164 to 175 °C.
`CN1C(=O)[C@@](NC(=O)Nc2cccc(CNc3nnn[nH]3)c2)(C2CCCCC2)N=Cc2ccccc21` showed a melting point of 175 to 178 °C.
Compound `CCC(=C1SCCCS1)c1ccc(Oc2ccccc2)cc1` showed a melting point of 53 to 54 °C.
For `C=C(C)C(=O)N(SC1CCCCC1)c1ccccc1` the value was 56 to 56.5 °C; for `C=CCn1c(C)c(C)c2cnnc(OCc3ccccc3)c21`, 115 to 116 °C.
For `Cc1cc2c(-c3ccc(Br)cc3)c(CC(=O)Nc3ccc(F)cc3C(F)(F)F)c(=O)oc2cc1Cl` the value was 262 to 264 °C; for `CCCCCCCCCCCCCCc1cc(C(=O)OCC)c[nH]1`, 59 to 62 °C; for `COc1cc(CCC(=O)O)ccc1OCCCc1cn(-c2ccc(C(F)(F)F)cn2)nc1C`, 136 to 137 °C.
Then `C1=C(c2ccccc2)CCN(Cc2nc3ccccc3[nH]2)C1`, with 253 to 255 °C.
In the case of `Cc1nc(N)nc(C)c1Br`, the melting point fell in the range of 183 to 185 °C.
Then `CSc1ccc(C2=C(Br)C(=O)OC2)cc1`, with 138 to 140 °C.
Then `CCCCCCCCCCCCCCNC1=NS(=O)(=O)c2sc(Cl)cc2N1`, with 157 to 158 °C; and `CSc1nccn1-c1nc(-c2ccc(Cl)cc2)c(CCC(=O)O)o1`, with 225 to 226 °C; and `C#CCOc1cccc(-n2c(-c3ccccc3)cc(=O)c(C)c2-c2ccccc2)c1`, with 166 to 169 °C.
For `CCCCc1ncc(CNC(C)(Cc2ccccc2)C(=O)O)n1Cc1ccccc1Cl` (stereo unspecified) the value was 157 to 159 °C; for `Cc1ccc(NC(=O)c2cc(Cl)ccc2NCC2CCN(C3CCCCCC3)CC2)nc1`, 159 to 161 °C; for `O=Cc1ccc2c(c1)CCC(C(=O)O)C2` (stereo unspecified), 205 to 212 °C.
The compound `COC(=O)c1cc(N)c2cc(Cc3ccc(F)cc3)cnc2c1O` came in with a melting point of 114 to 115 °C.
Compound `O=C(O)[C@H](Cc1ccccc1)NC(=O)N1CCOCC1` showed a melting point of 57 to 60 °C.
For `COc1ccc(NC(=O)C2CC2)cn1` the value was 130 to 131 °C; for `O=C1Nc2ccccc2OC1CCCN1CCC(Cc2ccccc2)CC1` (stereo unspecified), 108 °C; for `O=C(O)c1ccc(C=Cc2csc3ccccc23)s1`, 196 to 197 °C.
`Clc1ccc(Oc2ccccc2Oc2ccc(Cl)cn2)nc1` displayed a melting point of 82 to 84 °C.
Then `O=C(O)CCc1cn(Cc2ccc(OCc3csc(-c4cccs4)n3)cc2)cc1-c1ccccc1`, with 106 to 107 °C; and `C/C(=C/CO)c1cc2c(cc1O)C(C)(C)CCC2(C)C`, with 144 to 145 °C; and `O=C1C(=O)N(CCCCl)c2ccccc21`, with 72 to 76.5 °C.
Then `CCCCCCNc1nc2nc(N)[nH]c(=O)c2s1`, with above 320 °C; and `COc1cc([N+](=O)[O-])c(N)cc1OC(F)F`, with 144 to 145 °C.
Then `Cc1c2c(c(C)n1-c1ccccc1)C(C)(C)OC2(C)C`, with 113 to 116 °C.
